# From US20250127801A1, “BRIDGED TRICYCLIC CARBAMOYLPYRIDONE COMPOUNDS AND USES THEREOF” (priority 2023, published 2025)
# pEC50: −log10 of the molar value. Where two headings read alike, the source gives them in different places.
# How the values were obtained:
# HIV-1 (IIIB) = test: microbe, parasite or virus in culture; format: cell-based; details: for pEC50: Human immunodeficiency virus 1, MT4, 120 h, HIV-1 (IIIB) replication in MT-4 cells, 5 days incubation, Cell Titer Glo, read-out: MT4 EC50; for EC50: Human immunodeficiency virus 1, IIIB, MT4, 120 h, read-out: MT4 EC50 (nM)
# in vitro = details: human; for CC50 at 5 days: uninfected MT-4 cells
# physchem = details: 23 °C, thermodynamic from solid; for solubility thermodynamic at 24 h: FaSSIF; for solubility thermodynamic: fassif
# in vivo = details: male, beagle, dog, po, 175 mg
Compound,pEC50 (HIV-1 (IIIB)),CC50 at 5 days (in vitro),solubility thermodynamic at 24 h (physchem),EC50 (HIV-1 (IIIB)),CC50 (in vitro),solubility thermodynamic (physchem),bioavailability (in vivo)
"CC1=NO[C@@]2(CC[C@H](C)N3C[C@H]2n2cc(C(=O)NCc4ccc(F)cc4F)c(=O)c(OCOC(=O)[C@@H]4[C@H](COP(=O)(O)O)[C@H]4C(=O)O)c2C3=O)C1 [Compound 78, (1R,2R,3R)-2-(((((3′S,5S,7′R)-10′-((2,4-difluorobenzyl)carbamoyl)-3,3′-dimethyl-1′,11′-dioxo-1′,4′,5′,11′-tetrahydro-3′H,4H,7′H-spiro[isoxazole-5,6′-[2,7]methanopyrido[1,2-a][1,4]diazonin]-12′-yl)oxy)methoxy)carbonyl)-3-((phosphonooxy)methyl)cyclopropane-1-carboxylic acid]",8.66,8050 nM,5140 µg/mL,,,,
"CC1=NO[C@@]2(CC[C@H](C)N3C[C@H]2n2cc(C(=O)NCc4ccc(F)cc4F)c(=O)c(OCOC(=O)[C@H]4[C@@H](COP(=O)(O)O)[C@@H]4C(=O)O)c2C3=O)C1 [Compound 79, (1S,2S,3S)-2-(((((3′S,5S,7′R)-10′-((2,4-difluorobenzyl)carbamoyl)-3,3′-dimethyl-1′,11′-dioxo-1′,4′,5′,11′-tetrahydro-3′H,4H,7′H-spiro[isoxazole-5,6′-[2,7]methanopyrido[1,2-a][1,4]diazonin]-12′-yl)oxy)methoxy)carbonyl)-3-((phosphonooxy)methyl)cyclopropane-1-carboxylic acid]",8.65,12500 nM,4520 µg/mL,,,,
"CC1=NO[C@@]2(CC[C@H](C)N3C[C@H]2n2cc(C(=O)NCc4ccc(F)cc4F)c(=O)c(OCOC(=O)[C@@H]4CC[C@@H]4CN(CC(=O)O)C(=O)OCOP(=O)(O)O)c2C3=O)C1 [Compound 80, N-(((1S,2R)-2-(((((3′S,5S,7′R)-10′-((2,4-difluorobenzyl)carbamoyl)-3,3′-dimethyl-1′,11′-dioxo-1′,4′,5′,11′-tetrahydro-3′H,4H,7′H-spiro[isoxazole-5,6′-[2,7]methanopyrido[1,2-a][1,4]diazonin]-12′-yl)oxy)methoxy)carbonyl)cyclobutyl)methyl)-N-(((phosphonooxy)methoxy)carbonyl)glycine]",,,,0.785 nM,10100 nM,4150 µg/mL,
"CC1=NO[C@@]2(CC[C@H](C)N3C[C@H]2n2cc(C(=O)NCc4ccc(F)cc4F)c(=O)c(OC(=O)N(C)c4ncc(C(=O)N[C@@H](CC(=O)O)C(=O)O)cc4COP(=O)(O)O)c2C3=O)C1 [Compound 84, (6-(((((3′S,5S,7′R)-10′-((2,4-difluorobenzyl)carbamoyl)-3,3′-dimethyl-1′,11′-dioxo-1′,4′,5′,11′-tetrahydro-3′H,4H,7′H-spiro[isoxazole-5,6′-[2,7]methanopyrido[1,2-a][1,4]diazonin]-12′-yl)oxy)carbonyl)(methyl)amino)-5-((phosphonooxy)methyl)nicotinoyl)-L-aspartic acid]",,,,38 nM,≥ 50000 nM,5580 µg/mL,
"CCCCCCCCCCCCCC(=O)OCc1ccccc1C(=O)Oc1c2n(cc(C(=O)NCc3ccc(F)cc3F)c1=O)[C@@H]1CN(C2=O)[C@@H](C)CC[C@]12CC(C)=NO2 [Compound 92, (3′S,5S,7′R)-10′-((2,4-difluorobenzyl)carbamoyl)-3,3′-dimethyl-1′,11′-dioxo-1′,4′,5′,11′-tetrahydro-3′H,4H,7′H-spiro[isoxazole-5,6′-[2,7]methanopyrido[1,2-a][1,4]diazonin]-12′-yl 2-((tetradecanoyloxy)methyl)benzoate]",8.35,≥ 50000 nM,3 µg/mL,,,,
"CCCCCCCCCCCCCC(=O)Nc1ccc(CC(=O)Oc2c3n(cc(C(=O)NCc4ccc(F)cc4F)c2=O)[C@@H]2CN(C3=O)[C@@H](C)CC[C@]23CC(OC)=NO3)cc1 [Compound 93, (3′S,5S,7′R)-10′-((2,4-difluorobenzyl)carbamoyl)-3-methoxy-3′-methyl-1′,11′-dioxo-1′,4′,5′,11′-tetrahydro-3′H,4H,7′H-spiro[isoxazole-5,6′-[2,7]methanopyrido[1,2-a][1,4]diazonin]-12′-yl 2-(4-tetradecanamidophenyl)acetate]",8.86,≥ 50000 nM,6 µg/mL,,,,
"CCCCCCCCCCCCCC(=O)Nc1ccc(CC(=O)Oc2c3n(cc(C(=O)NCc4ccc(F)cc4F)c2=O)[C@@H]2CN(C3=O)[C@@H](C)CC[C@]23CC(C)=NO3)cc1 [Compound 94, (3′S,5S,7′R)-10′-((2,4-difluorobenzyl)carbamoyl)-3,3′-dimethyl-1′,11′-dioxo-1′,4′,5′,11′-tetrahydro-3′H,4H,7′H-spiro[isoxazole-5,6′-[2,7]methanopyrido[1,2-a][1,4]diazonin]-12′-yl 2-(4-tetradecanamidophenyl)acetate]",8.49,≥ 50000 nM,19 µg/mL,,,,
"CCCCCCCCCCCCCC(=O)Oc1ccc(CC(=O)Oc2c3n(cc(C(=O)NCc4ccc(F)cc4F)c2=O)[C@@H]2CN(C3=O)[C@@H](C)CC[C@]23CC(C)=NO3)cc1 [Compound 96, [4-[2-[(1R,10S,13S)-4-[(2,4-difluorophenyl)methylcarbamoyl]-3′,10-dimethyl-5,8-dioxo-spiro[2,9-diazatricyclo[7.4.1.02,7]tetradeca-3,6-diene-13,5′-4H-isoxazole]-6-yl]oxy-2-oxo-ethyl]phenyl] tetradecanoate]",8.65,≥ 50000 nM,13.5 µg/mL,,,,
"CCCCCCCCCCCCCC(=O)Oc1ccc(C(=O)Oc2c3n(cc(C(=O)NCc4ccc(F)cc4F)c2=O)[C@@H]2CN(C3=O)[C@@H](C)CC[C@]23CC(OC)=NO3)cc1 [Compound 99, (3′S,5S,7′R)-10′-((2,4-difluorobenzyl)carbamoyl)-3-methoxy-3′-methyl-1′,11′-dioxo-1′,4′,5′,11′-tetrahydro-3′H,4H,7′H-spiro[isoxazole-5,6′-[2,7]methanopyrido[1,2-a][1,4]diazonin]-12′-yl 4-(tetradecanoyloxy)benzoate]",8.52,≥ 50000 nM,13 µg/mL,,,,
"CCCCCCCCCCCCCC(=O)Oc1ccc(C(=O)Oc2c3n(cc(C(=O)NCc4ccc(F)cc4F)c2=O)[C@@H]2CN(C3=O)[C@@H](C)CC[C@]23CC(C)=NO3)cc1 [Compound 100, (3′S,5S,7′R)-10′-((2,4-difluorobenzyl)carbamoyl)-3,3′-dimethyl-1′,11′-dioxo-1′,4′,5′,11′-tetrahydro-3′H,4H,7′H-spiro[isoxazole-5,6′-[2,7]methanopyrido[1,2-a][1,4]diazonin]-12′-yl 4-(tetradecanoyloxy)benzoate]",8.53,12800 nM,64.5 µg/mL,,,,
"CC1=NO[C@@]2(CC[C@H](C)N3C[C@H]2n2cc(C(=O)NCc4ccc(F)cc4F)c(=O)c(O)c2C3=O)C1 [Intermediate B, (3′S,5S,7′R)—N-(2,4-difluorobenzyl)-12′-hydroxy-3,3′-dimethyl-1′,11′-dioxo-1′,4′,5′,11′-tetrahydro-3′H,4H,7′H-spiro[isoxazole-5,6′-[2,7]methanopyrido[1,2-a][1,4]diazonine]-10′-carboxamide]",,,,,,,15.6%
"COC1=NO[C@@]2(CC[C@H](C)N3C[C@H]2n2cc(C(=O)NCc4ccc(F)cc4F)c(=O)c(O)c2C3=O)C1 [Intermediate C, (3′S,5S,7′R)—N-(2,4-difluorobenzyl)-12′-hydroxy-3-methoxy-3′-methyl-1′,11′-dioxo-1′,4′,5′,11′-tetrahydro-3′H,4H,7′H-spiro[isoxazole-5,6′-[2,7]methanopyrido[1,2-a][1,4]diazonine]-10′-carboxamide]",,,,,,,14.5%
